Reference: patent US20060252731A1, “Methods of treating recurrent aphthous stomatitis” (priority 2005, published 2006)

Columns and labels:
[1] = Plasma concentration of COL-3 in humans; format: in vivo; settings: dose of about 10 to about 20 mg/day
Description: A preferred COL is 6-demethyl-6-deoxy-4-de(dimethylamino)tetracycline (COL-3). COL-3 is administered in doses of up to about 200 mg/day, preferably about 150 mg/day, more preferably about 100 mg/day, or in amounts that result in plasma concentrations of up to about 50 μg/ml, about 40 μg/ml or about 30 μg/ml. For example, a dose of about 10 to about 20 mg/day of COL-3 produces plasma concentrations in humans of about 1.0 μg/ml.

aphthous ulcers = settings: continuous systemic treatment, antimicrobial amounts; cited from earlier work
[2] = test system: minor aphthous ulceration; assay: Clinical study of SDD versus placebo for relief of symptoms of aphthous ulceration; format: in vivo, human; settings: for number of ulcers / pain associated with ulcers: 20 mg twice a day, vis-à-vis placebo group
Description: The objective of this study was to evaluate the clinical effects of a 20 mg dose of doxycycline administered twice daily (i.e., a sub-antibacterial dose of doxycycline, “SDD”) vis-à-vis a placebo administered twice daily for the relief of symptoms of aphthous ulceration.
The study was a single center, placebo-controlled, double-bind, parallel group study. The study participants were fifty patients of an oral medicine clinic. The participants were screened to identify any known predisposing factors prior to the study.
The participants were administered SDD or placebo for three months. The participants were permitted to use any additional ulcer management therapies as needed. The participants kept daily diaries to record pain caused by ulcers using the Visual Analogue Scale (VAS), and to record the number of new ulcers each day. The VAS quantified pain over a continuum represented by a horizontal line 100 mm in length.
At the baseline, the oral soft tissues and ulcer count were evaluated in each of the participants. The ulcer history of each participant was taken. At the third month, oral soft tissues and ulcer count were reevaluated.
Of the 50 participants, 25 were administered SDD; and 25 were administered placebo. Of the 50 participants, 32 were females, 18 were males; and 49 were Caucasian, and one was Asian. Thirty-three participants completed the study. Of these participants, 16 were in the SDD group and 17 were in the placebo group.

NC(=O)C1=C(O)C[C@@H]2C[C@@H]3Cc4cccc(O)c4C(=O)C3=C(O)[C@]2(O)C1=O [COL-3, 6-demethyl-6-deoxy-4-de(dimethylamino)tetracycline]
plasma concentrations in humans [1]: about 1.0 μg/ml

CN(C)[C@@H]1C(O)=C(C(N)=O)C(=O)[C@@]2(O)C(O)=C3C(=O)c4c(O)cccc4[C@@](C)(O)[C@H]3C[C@@H]12 [tetracycline, Tetracycline]
remission phases of aphthous ulcers (aphthous ulcers): long remission phases

doxycycline hyclate [SDD]
treatment of RAS ([2]; 20 mg doxycycline twice daily for three months): effectively treated RAS
Mean number of ulcers present at month 3 ([2]; 20 mg doxycycline twice daily for three months, placebo group 1.24, P >0.05): 0.69
Mean number of days using additional treatments ([2]; 20 mg doxycycline twice daily for three months, placebo group 13.4, P >0.05): 11.5
Mean total number of new ulcers in 3 months ([2]; 20 mg doxycycline twice daily for three months, placebo group 35, P >0.05(0.07)): 17
number of ulcers [2]: fewer ulcers
pain associated with ulcers [2]: less pain
number of ulcers ([2]; listed as doxycycline hyclate): significant reduction
pain associated with ulcers ([2]; listed as doxycycline hyclate): significant reduction
Mean cumulative VAS (mm) ([2]; pain by Visual Analogue Scale, daily diaries over three months, placebo group 1435, P >0.05): 901 mm
